# Laboratory results reported in PMC7531004, “Discovery of gramicidin A analogues with altered activities by multidimensional screening of a one-bead-one-compound library” (Nature Communications, 2020).
# Read-outs that look alike come from different tables or passages of the source. Where a SMILES comes first, the peptide text is derived from it. [ ]: non-standard residue; d: D form. The star is where a group is joined. NHCH2CH2OH = OCCN*; For = O=C*
# How the values were obtained:
# [1] = H+/Na+ transport assay of bead-derived peptides (one-point); assay type: biochemical; set-up: key: relative activity; mean of two control wells = 1.00; details: bead-derived peptide solution, EYPC/EYPG LUVs;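 note: relative to parent gramicidin A activity set to 1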
# Outline: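 Values are normalized fluorescence, with Triton X-100 defining 100% and untreated LUVs 0%, and the two control wells averaging 1.00. Vesicles carried 1.0 mM pyranine and included egg yolk phosphatidylglycerol. Peptides were incubated with them 30 min at room temperature.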
# [2] = system: Streptococcus pyogenes SSI-9; assay: Antibacterial activity assay of bead-derived peptides (three concentrations); assay type: cell-based; set-up: key: +++: inhibition by the 640-fold diluted peptide solution; ++: inhibition by the 160-fold diluted solution; +: inhibition by the 40-fold diluted solution; -: no inhibition; details: S. pyogenes
# Outline: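 Bead-derived library peptide stocks in DMSO were tested undiluted and after 4- and 16-fold DMSO dilution against S. pyogenes SSI-9 (2 × 10^5 CFU/well) in cation-adjusted Mueller Hinton Broth with 5% laked horse blood. After 18 h at 37 °C, wells were scored for precipitation of grown cells.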
# [3] = Description: (§1) Second, we examined the cytotoxicity toward mammalian cancer cells and hemolytic activity of 1. […] Hemolytic activity was evaluated by monitoring hemoglobin leakage from rabbit red blood cells as a consequence of membrane damage. The concentration of 1 required to cause 10% hemoglobin leakage (HC10) was 160 nM. Thus, the P388 cytotoxicity of 1 was 28-fold more sensitive than its hemolytic activity.
# (§2) Mammalian cytotoxicity assay of purified peptides.
# (§3) B22 was diluted with the growth medium with 2% DMSO to various concentrations as 5-fold serial dilution.
# (§4) The collected cells were resuspended into
# (§5) the growth medium at 2 × 10^4 cells/mL. Aliquots of the former medium (2% DMSO, 100 µL) containing
# (§6) peptides and the latter medium containing P388 cells (100 µL) were mixed in a 96-well cell culture plate
# (§7) (TR5003, TrueLine). The final concentration of P388 cells and DMSO were 1 × 10^4 cells/mL and 1%,
# (§8) respectively. […]
# (§9) were determined by WST -1 assay. A solution of 1-methoxy PMS and WST-1 in the growth medium
# (§10) (1-methoxy PMS 0.70 mg/mL in Milli-Q/WST-1 3.6 mg/mL in pH 7.4 HEPES buffer = 1/9) was added to
# (§11) each well of the plate (20.0 µL/well). The cells were incubated for 4 h under atmosphere of 5% CO 2 at
# (§12) 37 °C. The absorbance of each well at 415 nm was measured using a Benchmark microplate reader
# (§13) (Bio-Rad) or Thermo Scientifi c Multiskan GO (Thermo Fisher Scientific). The cytotoxicities of the purified
# (§14) peptides were evaluated as IC 50 (nM) by means of three replicates. Sigmoidal curve fittings were performed
# [4] = system: P388 mouse leukemia cell line
# Description: as §1, §2, §3, §4, §5, §6, §7, §8, §9, §10, §11, §12, §13, §14
# rabbit red blood cells = details: red cells of rabbit, 2 h
# Description: as §1
# Hemolysis assay of purified peptides. […]
# with DMSO to various concentrations as 3-fold serial dilution. A 50% suspension of rabbit blood in Alsever's solution was obtained from Nippon Bio -Supp. Center . The blood suspension (250 µL) w as diluted with phosphate buffered saline (no calcium, no magnesium, 1.00 mL). The resultant suspension was centrifuged at 1000 × g for 3 min at 8 °C. The supernatant was discarded, and the collected cells were resuspended in phosphate buffered saline (no calcium, no magnesium, 1.00 mL). The same procedure was repeated (× 3). The resultant suspension (100 µL) was diluted with phosphate buffered saline (no calcium, no magnesium, 4.90 mL) to give 0.2% red blood cells suspension. The 0.2% red blood cells suspension (95.0 µL) and each dilution series of the purified peptide in DMSO (5 .0 µL) were mixed in 2 mL microtube.
# supernatant was transferred to a 96-well plate (TR5003, TrueLine). The absorbance of each well at 415 nm was measured using a Thermo Scientific Multiskan GO (Thermo Fisher Scientific). The mixture of Triton X-100/H2O (5/95, 2.0 µL), DMSO (5.0 µL), and the 0.2% red blood cells suspension (95.0 µL) was used to determine 100% hemolysis. The mixture of DMSO (5.0 µL) and the 0.2% red blood cells suspension (95.0 µL) was used to determine 0% hemolysis. The hemolytic activities of tested peptides ( I) were normalized against 100% hemolysis by Triton X -100 (Imax) and 0% hemolysis by DMSO (I0) according to Supplementary Equation 3, where Ix is the UV absorbance.
# I = 100 × (Ix – I0) / (Imax – I0) (3)
# The hemolytic activities of the purified peptides were evaluated as the concentrations causing 10% hemolysis (HC10, nM) by means of three replicates. Sigmoidal curve fittings were performed on GraphPad Prism (GraphPad software, Supplementary Figure 7).
smiles,measurement,setting,value
"CC(C)C[C@@H](NC(=O)[C@H](C)NC(=O)CNC(=O)[C@@H](NC=O)C(C)C)C(=O)N[C@@H](C)C(=O)N[C@@H](C(=O)N[C@H](C(=O)N[C@@H](C(=O)N[C@@H](Cc1c[nH]c2ccccc12)C(=O)N[C@H](CC(C)C)C(=O)N[C@@H](Cc1c[nH]c2ccccc12)C(=O)N[C@H](CC(C)C)C(=O)N[C@@H](Cc1c[nH]c2ccccc12)C(=O)N[C@H](CC(C)C)C(=O)N[C@@H](Cc1c[nH]c2ccccc12)C(=O)NCCO)C(C)C)C(C)C)C(C)C [compound 1, Gramicidin A] (For-VGA[dL]A[dV]V[dV]W[dL]W[dL]W[dL]W-NHCH2CH2OH)",H+/Na+ transport activity normalized against the value of 1 (1.00),[1],1.07
same,antibacterial activity in the library screening,[2],++ or +
same,antibacterial activity,"[2]; bead-derived peptide solution, three concentrations",-
same,IC50,"[3]; IC50, mammalian cytotoxicity assay",4.86 nM
same,IC50,[3]; cytotoxicity against P388 cells/IC50,5.81 ± 0.99 nM
same,IC99.6 value (threshold concentration of one-point cytotoxicity assay),[4],30 nM
same,P388 cytotoxicity more sensitive than hemolytic activity,[4],28 fold
same,Hemolytic activity HC10 (concentration causing 10% hemolysis),rabbit red blood cells,160 nM
